According to patent publication US12459939B2 (SHANGHAI RINGENE BIOPHARMA CO., LTD., priority 2019, dated 2025):

Assays:
[1] = system: MV4-11 cells; test: Inhibition of proliferation of MV4-11 cells (CellTiter-Glo); assay type: cell-based; details: Homo sapiens, 72 h
Procedure: Specific experimental steps: 1) Day 0: 96 inoculated cells were digested with trypsin and suspended in cell culture medium, the cell density was detected by an automatic cell counter and the cells were diluted with the culture medium to a suitable density, 100 μL of cell suspension was added to the 96-well plate, and the cell-free medium was used as a control well, and the wells were incubated in a 37° C., 5% CO2 cell incubator overnight; 2) Day 1: A total of 8 concentrations of the compound to be tested in the drug-treated cells were tested at 3-fold dilution, 10 μM was the starting assay concentration of the compound to be tested. Specific steps: 200× compound mother liquor was prepared, the compound was diluted with culture medium to a final concentration of […], that is, 3 μL of 200× compound was added to 197 μL of culture medium, 50 μL diluted compound was added to each well of the 96-well plate, and placed at 37° C., 5% CO2 cell culture incubator for 72 h; 3) Day 4: Cell viability detection: 96-well cell plate was first equilibrated to room temperature, 40 μL of CellTiter-Glo® reagent was added to each well, mixed on a shaker for 2 minutes to fully lyse the cells, incubated at room temperature for 10 minutes to stabilize the luminescence signal, and the luminescence value was read by the Envision microplate reader; 4) data processing was performed by GraphPad Prism 5.0 software to analyze the data, and nonlinear S-curve regression was used to fit the data to obtain a dose-effect curve, and from which the ICso value was calculated. Inhibition rate %=(DMSO treated cell wells−compound treated cell wells)/(DMSO treated cell wells−cell free medium wells)×100. The ICso value was obtained by the four-parameter regression method using the random software in the microplate reader. (See Table 2 for specific values)

[2] = molecular target: T1, BRD4-BD2 (Homo sapiens, UniProt O60885); test: BRD4 AlphaScreen determination (BD2); assay type: binding; details: AlphaScreen, protein binding inhibition; read-out: BRD4-BD2 IC50
T1 construct: purchased ReactionBiologyCorp; (RBC)
Procedure: (§1) (1) 1× Assay buffer was prepared according to the kit requirements of ReactionBiologyCorp. (RBC). (2) Compound concentration gradient preparation: the test compounds were tested at final concentrations starting at 10 μM, with 10 concentrations at 3-fold dilution and single well test was set for each concentration. The positive control compound(+)-JQ-1 was tested at final concentrations starting at 1 μM, with 10 concentrations at 3-fold dilution, and duplicated well test was set for each concentration. The solution was gradient diluted to the corresponding 1000-fold final concentration in a 384-well Source plate, and then 20 nL of the solution was transferred to the 384-well reaction plate with Echo550 to be measured. 20 nL of 100% DMSO was transferred to the Max well, and the highest concentration of the positive compounds were transferred to the Min wells. […] (6) 5 μL of 4× peptide solution was added to each well of the reaction plate, centrifuged at 1000 rpm for 1 min. (7) 10 μL of the assay solution was added, centrifuged at 1000 rpm for 60 seconds, the solution was mixed with gentle shaking, and incubated at room temperature for 60 minutes. (8) Reading with EnVision. (9) The IC50 values of the compounds for protein binding inhibition was obtained by fitting the dose-effect curve with the analytical software GraphPad Prism 5. (See Table 1 for specific values)

[3] = molecular target: T2, BRD4-BD1 (Homo sapiens, UniProt O60885); test: BRD4 AlphaScreen determination (BD1); assay type: binding; details: AlphaScreen, protein binding inhibition; read-out: BRD4-BD1 IC50
T2 construct: purchased ReactionBiologyCorp; (RBC)
Procedure: as §1

Compound	IC50 [1] [nM]	IC50 [2] [nM]	IC50 [3] [nM]
Cc1cc(F)cc(C)c1Oc1ccc(C(C)(C)O)cc1-c1cn(C)c(=O)c2cc(C(=O)NCCS(C)(=O)=O)[nH]c12 [Embodiment 10, 7-(2-(4-fluoro-2,6-dimethylphenoxy)-5-(2-hydroxyprop-2-yl)phenyl)-N-(2-methylsulfonyl)-4-oxo-4,5-dihydro-1H-pyrrolo pyridine-2-amide]	19.8	0.69	58
Cc1cc(F)cc(C)c1Oc1ccc(C(C)(C)O)cc1-c1cn(C)c(=O)c2cc(C(=O)N3CC(F)(F)C3)[nH]c12 [Embodiment 19, 2-(3,3-difluoroazetidine-1-carbonyl)-7-(2-(4-fluoro-2,6-dimethylphenoxy)-5-(2-hydroxyprop-2-yl)phenyl)-5-methyl-1,5-dihydro-4H-pyrrolo[3,2-c]pyridin-4-one]	147	2.8	292
Cc1cc(F)cc(C)c1Oc1ccc(C(C)(C)O)cc1-c1cn(C)c(=O)c2cc(C(=O)NCC#N)[nH]c12 [Embodiment 15, N-(cyanomethyl)-7-(2-(4-fluoro-2,6-dimethylphenoxy)-5-(2-hydroxyprop-2-yl)phenyl)-5-methyl-4-oxo-4,5-dihydro-1H-pyrrolo[3,2-c] pyridine-2-amide]	33.3	< 0.5	81
Cc1cc(F)cc(C)c1Oc1ccc(C(C)(C)O)cc1-c1cn(C)c(=O)c2cc(C(=O)NCC3CC3)[nH]c12 [Embodiment 12, N-(cyclopropylmethyl)-7-(2-(4-fluoro-2,6-dimethylphenoxy)-5-(2-hydroxyprop-2-yl)phenyl)-5-methyl-4-oxo-4,5-dihydro-1H-pyrrolo[3,2-c]pyridine-2-amide]	12.7	< 0.5	50
Cc1cc(F)cc(C)c1Oc1ccc(C(C)(C)O)cc1-c1cn(C)c(=O)c2cc(C(=O)NCC(F)(F)F)[nH]c12 [Embodiment 14, 7-(2-(4-fluoro-2,6-dimethylphenoxy)-5-(2-hydroxyprop-2-yl)phenyl)-5-methyl-4-oxo-N-(2,2,2-trifluoroethyl)-4,5-dihydro-1H-pyrrolo[3,2-c]pyridine-2-amide]	31.3	< 0.5	219
CCNC(=O)c1cc2c(=O)n(C)cc(-c3cc(S(C)(=O)=O)cc4c3OC(C)(C)C(=O)N4C)c2[nH]1 [Embodiment 2, N-ethyl-5-methyl-4-oxo-7-(2,2,4-trimethyl-6-(methylsulfonyl)-3-oxo-3,4-dihydro-2H-benzo[b][1,4]oxazin-8-yl)-4,5-dihydro-1H-pyrrolo[3,2-c]pyridine-2-amide]	64	1.2	36
Cc1cc(F)cc(C)c1Oc1ccc(C(C)(C)O)cc1-c1cn(C)c(=O)c2cc(C(=O)N3CCC3)[nH]c12 [Embodiment 17, 2-(azetidine-1-carbonyl)-7-(2-(4-fluoro-2,6-dimethylphenoxy)-5-(2-hydroxyprop-2-yl)phenyl)-5-methyl-1,5-dihydro-4H-pyrrolo[3,2-c] pyridin-4-one]	248	7.4	233
COCCNC(=O)c1cc2c(=O)n(C)cc(-c3cc(C(C)(C)O)ccc3Oc3c(C)cc(F)cc3C)c2[nH]1 [Embodiment 9, 7-(2-(4-fluoro-2,6-dimethylphenoxy)-5-(2-hydroxyprop-2-yl)phenyl)-N-(2-methoxyethyl)-5-methyl-4-oxo-4,5-dihydro-1H-pyrrolo[3,2-c]pyridine-2-amide]	19.8	0.51	37

The next compounds have a lower IC50 [1] than those just listed; values first:

IC50 [1] [nM]	IC50 [2] [nM]	IC50 [3] [nM]	Compound
< 1.5	–	–	Cc1cc(F)cc(C)c1Oc1ccc(C(C)(C)O)cc1-c1cn(C)c(=O)c2cc(C(=O)NCCCCCc3cccc4c3CN(C3CCC(=O)NC3=O)C4=O)[nH]c12 (centres unmarked) [Embodiment 4, N-(5-(2-(2,6-dioxopiperidin-3-yl)-1-oxoisoindolin-4-yl)pentyl)-7-(2-(4-fluoro-2,6-dimethylphenoxy)-5-(2-hydroxyprop-2-yl)phenyl)-5-methyl-4-oxo-4,5-dihydro-1H-pyrrolo[3,2-c]pyridine-2-amide]
< 1.5	–	–	CN1C(=O)C(C)(C)Oc2c(-c3cn(C)c(=O)c4cc(C(=O)NCCOCCOCCOCCC(=O)Nc5cccc6c5C(=O)N(C5CCC(=O)NC5=O)C6=O)[nH]c34)cc(S(C)(=O)=O)cc21 (centres unmarked) [Embodiment 7, N-(2-(2-(2-(3-((2-(2,6-dioxopiperidin-3-yl)-1,3-dioxoisoindolin-4-yl)amino)-3-oxo-n-propoxy)ethoxy)ethoxy)ethyl)-5-methyl-4-oxo-7-(2,2,4-trimethyl-6-(methylsulfonyl)-3-oxo-3,4-dihydro-2H-benzo[b] [1,4]oxazin-8-yl)-4,5-dihydro-1H-pyrrolo[3,2-c]pyridine-2-amide]
< 1.5	–	–	Cc1cc(F)cc(C)c1Oc1ccc(C(C)(C)O)cc1-c1cn(C)c(=O)c2cc(C(=O)NCCCC#Cc3cccc4c3CN(C3CCC(=O)NC3=O)C4=O)[nH]c12 (centres unmarked) [Embodiment 3, N-(5-(2-(2,6-dioxopiperidin-3-yl)-1-oxoisoindolin-4-yl)pent-4-yn-1-yl)-7-(2-(4-fluoro-2,6-dimethylphenoxy)-5-(2-hydroxyprop-2-yl)phenyl)-5-methyl-4-oxo-4,5-dihydro-1H-pyrrolo[3,2-c]pyridine-2-amide]
< 1.5	–	–	Cc1cc(F)cc(C)c1Oc1ccc(C(C)(C)O)cc1-c1cn(C)c(=O)c2cc(C(=O)NCCCCNC(=O)COc3cccc4c3C(=O)N(C3CCC(=O)NC3=O)C4=O)[nH]c12 (centres unmarked) [Embodiment 5, N-(4-(2-((2-(2,6-dioxopiperidin-3-yl)-1,3-dioxoisoindolin-4-yl)oxo)acetamido)butyl)-7-(2-(4-fluoro-2,6-dimethylphenoxy)-5-(2-hydroxyprop-2-yl)phenyl)-5-methyl-4-oxo-4,5-dihydro-1H-pyrrolo[3,2-c]pyridine-2-amide]
7.95	< 0.5	93	Cc1cc(F)cc(C)c1Oc1ccc(C(C)(C)O)cc1-c1cn(C)c(=O)c2cc(C(=O)NC3CC3)[nH]c12 [Embodiment 16, N-cyclopropyl-7-(2-(4-fluoro-2,6-dimethylphenoxy)-5-(2-hydroxyprop-2-yl)phenyl)-5-methyl-4-oxo-4,5-dihydro-1H-pyrrolo[3,2-c]pyridine-2-amide]
6.6	< 0.5	79	Cc1cc(F)cc(C)c1Oc1ccc(C(C)(C)O)cc1-c1cn(C)c(=O)c2cc(C(=O)NC(C)C)[nH]c12 [Embodiment 13, 7-(2-(4-fluoro-2,6-dimethylphenoxy)-5-(2-hydroxyprop-2-yl)phenyl)-N-isopropyl-5-methyl-4-oxo-4,5-dihydro-1H-pyrrolo[3,2-c]pyridine-2-amide]
10.2	–	–	Cc1cc(F)cc(C)c1Oc1ccc(C(C)(C)O)cc1-c1cn(C)c(=O)c2cc(C(=O)NCCCOCCOCCOCCCNc3cccc4c3C(=O)N(C3CCC(=O)NC3=O)C4=O)[nH]c12 (centres unmarked) [Embodiment 6, N-(3-(2-(2-(3-((2-(2,6-dioxopiperidin-3-yl)-1,3-dioxoisoindolin-4-yl)amino)propoxy)ethoxy)ethoxy)propyl)-7-(2-(4-fluoro-2,6-dimethylphenoxy)-5-(2-hydroxyprop-2-yl)phenyl)-5-methyl-4-oxo-4,5-dihydro-1H-pyrrole[3,2-c]pyridine-2-amide]
4.8	< 0.51	98	Cc1cc(F)cc(C)c1Oc1ccc(C(C)(C)O)cc1-c1cn(C)c(=O)c2cc(C(=O)NC(CF)CF)[nH]c12 [Embodiment 20, N-(1,3-difluoropropyl-2-yl)-7-(2-(4-fluoro-2,6-dimethylphenoxy)-5-(2-hydroxyprop-2-yl)phenyl)-5-methyl-4-oxo-4,5-dihydro-1H-pyrrolo[3,2-c]pyridine-2-amide]
